Test results from ChEMBL document CHEMBL5518215, “Unlocking Antibacterial Potential: Key-Site-Based Regulation of Antibacterial Spectrum of Peptides” (J Med Chem, 2024).

Key:
Escherichia coli [1] = experiment: Antimicrobial activity against Escherichia coli 25922 assessed as absence bacterial growth measured after 18 to 24 hrs incubation by NCCLS method; type: functional; conditions: time 18-24 hrs
Escherichia coli [2] = experiment: Antimicrobial activity against Escherichia coli K88 assessed as absence bacterial growth measured after 18 to 24 hrs incubation by NCCLS method; type: functional; conditions: time 18-24 hrs
Salmonella typhimurium [3] = experiment: Antimicrobial activity against Salmonella typhimurium 14028 assessed as absence bacterial growth measured after 18 to 24 hrs incubation by NCCLS method; type: functional, Salmonella enterica subsp. enterica serovar Typhimurium; conditions: Salmonella enterica, time 18-24 hrs
[4] = Antimicrobial activity against Salmonella pullorum C7913 assessed as absence bacterial growth measured after 18 to 24 hrs incubation by NCCLS method; type: functional, Salmonella enterica subsp. enterica serovar Pullorum; conditions: Salmonella enterica, time 18-24 hrs
Pseudomonas aeruginosa [5] = experiment: Antimicrobial activity against Pseudomonas aeruginosa 27853 assessed as absence bacterial growth measured after 18 to 24 hrs incubation by NCCLS method; type: functional; conditions: time 18-24 hrs
Acinetobacter baumannii [6] = experiment: Antimicrobial activity against Acinetobacter baumannii 1.6769 assessed as absence bacterial growth measured after 18 to 24 hrs incubation by NCCLS method; type: functional; conditions: time 18-24 hrs
Enterococcus faecalis [7] = experiment: Antimicrobial activity against Enterococcus faecalis 29212 assessed as absence bacterial growth measured after 18 to 24 hrs incubation by NCCLS method; type: functional; conditions: time 18-24 hrs
Listeria monocytogenes [8] = experiment: Antimicrobial activity against Listeria monocytogenes 1.10753 assessed as absence bacterial growth measured after 18 to 24 hrs incubation by NCCLS method; type: functional; conditions: time 18-24 hrs
Bacillus cereus [9] = experiment: Antimicrobial activity against Bacillus cereus 1.932 assessed as absence bacterial growth measured after 18 to 24 hrs incubation by NCCLS method; type: functional; conditions: time 18-24 hrs
Staphylococcus aureus [10] = experiment: Antimicrobial activity against Staphylococcus aureus 29213 assessed as absence bacterial growth measured after 18 to 24 hrs incubation by NCCLS method; type: functional; conditions: time 18-24 hrs
Staphylococcus aureus [11] = experiment: Antimicrobial activity against Methicillin-resistant Staphylococcus aureus 43300 assessed as absence bacterial growth measured after 18 to 24 hrs incubation by NCCLS method; type: functional; conditions: time 18-24 hrs
[12] = system: Staphylococcus epidermidis; experiment: Antimicrobial activity against Staphylococcus epidermidis 12228 assessed as absence bacterial growth measured after 18 to 24 hrs incubation by NCCLS method; type: functional; conditions: time 18-24 hrs
Staphylococcus aureus [13] = experiment: Antimicrobial activity against Staphylococcus aureus 29213 assessed as absence bacterial growth measured after 18 to 24 hrs incubation by NCCLS m; type: functional; conditions: time 18-24 hrs
Escherichia coli [14] = experiment: Antimicrobial activity against Escherichia coli 25922 assessed as bacterial killing measured after 16 hrs incubation; type: functional
Escherichia coli [15] = experiment: Antimicrobial activity against Escherichia coli K88 assessed as bacterial killing measured after 16 hrs incubation; type: functional
Salmonella typhimurium [16] = experiment: Antimicrobial activity against Salmonella typhimurium 14028 assessed as bacterial killing measured after 16 hrs incubation; type: functional, Salmonella enterica subsp. enterica serovar Typhimurium; conditions: Salmonella enterica
Salmonella typhimurium [17] = experiment: Antimicrobial activity against Salmonella typhimurium C7731 assessed as bacterial killing measured after 16 hrs incubation; type: functional, Salmonella enterica subsp. enterica serovar Typhimurium; conditions: Salmonella enterica
[18] = Antimicrobial activity against Salmonella pullorum C7913 assessed as bacterial killing measured after 16 hrs incubation; type: functional, Salmonella enterica subsp. enterica serovar Pullorum; conditions: Salmonella enterica
Pseudomonas aeruginosa [19] = experiment: Antimicrobial activity against Pseudomonas aeruginosa 27853 assessed as bacterial killing measured after 16 hrs incubation; type: functional
Acinetobacter baumannii [20] = experiment: Antimicrobial activity against Acinetobacter baumannii 1.6769 assessed as bacterial killing measured after 16 hrs incubation; type: functional
Enterococcus faecalis [21] = experiment: Antimicrobial activity against Enterococcus faecalis 29212 assessed as bacterial killing measured after 16 hrs incubation; type: functional
Listeria monocytogenes [22] = experiment: Antimicrobial activity against Listeria monocytogenes 1.10753 assessed as bacterial killing measured after 16 hrs incubation; type: functional
Bacillus cereus [23] = experiment: Antimicrobial activity against Bacillus cereus 1.932 assessed as bacterial killing measured after 16 hrs incubation; type: functional
Staphylococcus aureus [24] = experiment: Antimicrobial activity against Staphylococcus aureus 29213 assessed as bacterial killing measured after 16 hrs incubation; type: functional
Staphylococcus aureus [25] = experiment: Antimicrobial activity against Methicillin-resistant Staphylococcus aureus 43300 assessed as bacterial killing measured after 16 hrs incubation; type: functional
[26] = system: Staphylococcus epidermidis; experiment: Antimicrobial activity against Staphylococcus epidermidis 12228 assessed as bacterial killing measured after 16 hrs incubation; type: functional
Staphylococcus aureus [27] = experiment: Antimicrobial activity against Staphylococcus aureus 25923 assessed as bacterial killing measured after 16 hrs incubation; type: functional
Salmonella typhimurium [28] = experiment: Antimicrobial activity against Salmonella typhimurium C7731 assessed as absence bacterial growth measured after 18 to 24 hrs incubation by NCCLS method; type: functional, Salmonella enterica subsp. enterica serovar Typhimurium; conditions: Salmonella enterica, time 18-24 hrs
Escherichia coli [29] = experiment: Antimicrobial activity against Escherichia coli 25922 assessed as absence bacterial growth measured after 18 to 24 hrs incubation in presence of 50% serum by NCCLS method; type: functional; conditions: time 18-24 hrs
Escherichia coli [30] = experiment: Antimicrobial activity against Escherichia coli 25922 assessed as absence bacterial growth measured after 18 to 24 hrs incubation in presence of 25% serum by NCCLS method; type: functional; conditions: time 18-24 hrs
Escherichia coli [31] = experiment: Antimicrobial activity against Escherichia coli 25922 assessed as absence bacterial growth measured after 18 to 24 hrs incubation in presence of 12.5% serum by NCCLS method; type: functional; conditions: time 18-24 hrs
[32] = Hemolytic activity in human RBC at effective concentration at 128 uM measured after 1 hr by microplate reader relative to control; type: toxicity, cell-based, Erythrocyte; conditions: human red blood cells (erythrocytes), read-out: Activity
Escherichia coli [33] = experiment: Antimicrobial activity against Escherichia coli 25922 assessed as absence bacterial growth measured after 18 to 24 hrs incubation in presence of NaCl by NCCLS method; type: functional; conditions: time 18-24 hrs
Escherichia coli [34] = experiment: Antimicrobial activity against Escherichia coli 25922 assessed as absence bacterial growth measured after 18 to 24 hrs incubation in presence of KCl by NCCLS method; type: functional; conditions: time 18-24 hrs
Escherichia coli [35] = experiment: Antimicrobial activity against Escherichia coli 25922 assessed as absence bacterial growth measured after 18 to 24 hrs incubation in presence of NH4Cl by NCCLS method; type: functional; conditions: time 18-24 hrs
Escherichia coli [36] = experiment: Antimicrobial activity against Escherichia coli 25922 assessed as absence bacterial growth measured after 18 to 24 hrs incubation in presence of MgCl2 by NCCLS method; type: functional; conditions: time 18-24 hrs
Escherichia coli [37] = experiment: Antimicrobial activity against Escherichia coli 25922 assessed as absence bacterial growth measured after 18 to 24 hrs incubation in presence of ZnCl2 by NCCLS method; type: functional; conditions: time 18-24 hrs
Escherichia coli [38] = experiment: Antimicrobial activity against Escherichia coli 25922 assessed as absence bacterial growth measured after 18 to 24 hrs incubation in presence of FeCl3 by NCCLS method; type: functional; conditions: time 18-24 hrs
Erythrocyte = experiment: Hemolytic activity in human RBC at effective concentration measured after 1 hr by microplate reader analysis; type: toxicity, cell-based
[39] = Cytotoxicity against mouse RAW264.7 cells assessed as cell survival rate measured after 8 hrs by MTT assay; type: toxicity, cell-based
[40] = Cytotoxicity against human HEK-293T cells assessed as cell survival rate measured after 8 hrs by MTT assay; type: toxicity, cell-based
[41] = Cytotoxicity against porcine IPEC-J2 cells assessed as cell survival rate measured after 8 hrs by MTT assay; type: toxicity, cell-based, Sus scrofa; conditions: pig

H-IKLWLKGGKLWLKGGKLWLKG-NH2
2 µM: MIC (Escherichia coli [2]) | MIC [4] | MBC (Escherichia coli [15]) | MBC [18]
> 128 µM: HC10 (Erythrocyte)
8 µM: MIC (Salmonella typhimurium [3]) | MIC (Pseudomonas aeruginosa [5]) | MIC (Acinetobacter baumannii [6]) | MBC (Escherichia coli [14]) | MBC (Salmonella typhimurium [16]) | MBC (Pseudomonas aeruginosa [19]) | MBC (Acinetobacter baumannii [20]) | MIC (Salmonella typhimurium [28]) | MIC (Escherichia coli [35])
> 64 µM: IC50 at 8 h [39] | IC50 at 8 h [40]
16 µM: MIC (Escherichia coli [37]) | MIC (Escherichia coli [38])
31.4 µM: IC50 at 8 h [41]
32 µM: MBC (Salmonella typhimurium [17])
4 µM: MIC (Escherichia coli [1]) | MIC (Escherichia coli [34])
> 32 µM: MIC (Enterococcus faecalis [7]) | MIC (Listeria monocytogenes [8]) | MIC (Bacillus cereus [9]) | MIC (Staphylococcus aureus [10]) | MIC (Staphylococcus aureus [11]) | MIC [12] | MIC (Staphylococcus aureus [13]) | MBC (Enterococcus faecalis [21]) | MBC (Listeria monocytogenes [22]) | MBC (Bacillus cereus [23]) | MBC (Staphylococcus aureus [24]) | MBC (Staphylococcus aureus [25]) | MBC [26] | MBC (Staphylococcus aureus [27]) | MIC (Escherichia coli [29]) | MIC (Escherichia coli [30]) | MIC (Escherichia coli [31]) | MIC (Escherichia coli [33]) | MIC (Escherichia coli [36])
< 10%: hemolysis at 1 h, 128 µM [32]

H-VKLWLKGGKLWLKGGKLWLKG-NH2
1 µM: MIC (Escherichia coli [2]) | MBC (Escherichia coli [15])
60.2 µM: IC50 at 8 h [41]
16 µM: MBC (Escherichia coli [14]) | MBC (Salmonella typhimurium [16]) | MBC (Acinetobacter baumannii [20]) | MIC (Escherichia coli [31])
> 32 µM: MIC (Pseudomonas aeruginosa [5]) | MIC (Enterococcus faecalis [7]) | MIC (Listeria monocytogenes [8]) | MIC (Bacillus cereus [9]) | MIC (Staphylococcus aureus [10]) | MIC (Staphylococcus aureus [11]) | MIC [12] | MIC (Staphylococcus aureus [13]) | MBC (Pseudomonas aeruginosa [19]) | MBC (Enterococcus faecalis [21]) | MBC (Listeria monocytogenes [22]) | MBC (Bacillus cereus [23]) | MBC (Staphylococcus aureus [24]) | MBC (Staphylococcus aureus [25]) | MBC [26] | MBC (Staphylococcus aureus [27]) | MIC (Escherichia coli [29]) | MIC (Escherichia coli [33]) | MIC (Escherichia coli [36])
8 µM: MIC (Salmonella typhimurium [3]) | MIC (Salmonella typhimurium [28]) | MIC (Escherichia coli [35])
32 µM: MBC (Salmonella typhimurium [17]) | MIC (Escherichia coli [30])
4 µM: MIC (Escherichia coli [1]) | MIC (Acinetobacter baumannii [6]) | MBC [18] | MIC (Escherichia coli [34]) | MIC (Escherichia coli [37]) | MIC (Escherichia coli [38])
< 10%: hemolysis at 1 h, 128 µM [32]
> 64 µM: IC50 at 8 h [39] | IC50 at 8 h [40]
> 128 µM: HC10 (Erythrocyte)
2 µM: MIC [4]
